Test results published in patent US10334849B2, “Salts of carboxylic acid herbicides” (Monsanto Technology LLC, priority 2011, dated 2019).
Where two headings read alike, the source gives them in different places.

Tests used:
[1] = Humidome test: dicamba volatilized into air from spray solution applied to soil; type: physicochemical; conditions: sprayed on soil at 10 GPA, 24 hours, vs CLARITY without glyphosate
Description: In another method, the volatility of solutions containing a herbicide salt can be evaluated by measuring herbicide concentrations in the gas phase (air) through air sampling in humidome plant growth chambers, which are maintained at constant temperature and humidity. For further details see the Humidome Protocol described in Example 2.
(§1) In this example, various salts of dicamba prepared in Example 1 were selected for volatility testing. As described below, spray solutions containing the selected dicamba salts were prepared and subjected to volatility testing via the tube test and/or humidome protocols. Typically, the spray solutions containing the selected dicamba salts also contained potassium glyphosate co-herbicide. Aqueous test spray solutions containing selected salts of dicamba and potassium glyphosate were prepared by mixing a solution of dicamba salt with a solution of potassium glyphosate salt and adjusting the relative proportion and/or diluting with water to arrive at the desired concentration of dicamba and glyphosate.
Humidomes were obtained from Hummert International (Part Nos 14-3850-2 for humidomes and 11-3050-1 for 1020 flat tray) and modified by cutting a 2.2 cm diameter hole on one end approximately 5 cm from the top to allow for insertion of a glass air sampling tube (22 mm OD) containing a polyurethane foam (PUF) filter. The sampling tube was secured with a VITON o-ring on each side of the humidome wall. The air sampling tube external to the humidome was fitted with tubing that was connected to a vacuum manifold immediately prior to sampling.
The flat tray beneath the humidome was filled with 1 liter of sifted dry or wet 50/50 soil (50% Redi-Earth and 50% US 10 Field Soil) to a depth of about 1 cm. To measure the dicamba concentration in the gas phase (air) volatilized from the spray solutions, samples of the spray solutions were sprayed over the soil in the humidome using a track sprayer at a rate of 10 gallons per acre (GPA). To avoid contamination of the sides of the flat tray, each tray was nested in an empty tray prior to spraying.
The flat tray bottom containing the dicamba formulation on soil was covered with a humidome lid and the lid was secured with clamps. The assembled humidomes were placed in a temperature and humidity controlled environment and connected to a vacuum manifold through the air sampling line. Air was drawn through the humidome and PUF at a rate of 2 liters per minutes (LPM) for 24 hours at which point the air sampling was stopped. The humidomes were then removed from the controlled environment and the PUF filter was removed. The PUF filter was extracted with 20 mL of methanol and the solution was analyzed for dicamba concentration using LC-MS methods known in the art.
For comparison, samples of spray solutions containing the diglycolamine salt of dicamba (i.e., CLARITY) at approximately the same weight percent a.e. as the tested dicamba salt sprays were subjected to the humidome tests.
(§2) The reduction in volatility is calculated relative to the volatility of the samples containing the diglycolamine salt of dicamba.

[2] = Tube test: dicamba volatilized from spray solution into air; type: physicochemical; conditions: air about 35° C., about 40% RH, 24 hours
Method: Volatility reduction may be quantified experimentally by methods known in the art. In one method the volatility of solutions containing a herbicide salt can be measured in the gas phase (air) via tube tests. In a tube test, a sample of the herbicide solution is placed in a test tube that has been modified to allow air flow through the tube. A selective collection medium is attached to the outlet of the tube to collect volatilized herbicide. The collection medium is then analyzed for the respective herbicide. For further details see the Tube Test Protocol described in Example 2.
as §1
To measure the dicamba concentration in the gas phase (air) volatilized from the spray solutions, 10 mL samples of each solution were placed into a 50 mL plastic centrifuge tube with one hole approximately ⅛ in (3.2 mm) diameter drilled into the tube at the mark between 20 mL and 30 mL lines. A 22 mm×30 mm polyurethane foam (PUF), cut from a 76 mm length, available from SKC Inc., catalog #P22692, was placed into a glass tube of approximately 20 mm diameter with parafilm wrapped around the outside to obtain a snug fit into the top of the centrifuge tube. A hose was connected to the other end of the glass tube leading to a vacuum line. The air flow was regulated to approximately 2 L/min using a flow controller. Air was pulled through the tube at approximately 2 L/min for 24 hours. Note that the air conditions of flow rate, temperature, pressure and composition (e.g., relative humidity) are not narrowly critical as long as the various samples are analyzed under similar conditions. For instance, air at from about 5° C. to about 40° C., from about 0.5 to about 1.5 bar pressure, from about 0% to about 95% relative humidity, and at a flow rate of from about 0.1 to 10 L/min-mL sample could be suitably used for volatility analysis. In this test, the air pulled through the tubes was at about 35° C. and about 40% relative humidity. The PUF was removed from the glass tube, extracted with 20 mL methanol and the resulting solution analyzed for dicamba concentration using liquid chromatography-mass spectroscopy (LC-MS) methods known in the art.
For comparison, samples of spray solutions containing 2 wt. % a.e. of the diglycolamine salt of dicamba (i.e., CLARITY) were also subjected to the tube test protocol.
as §2

velvetleaf (ABUTH) = conditions: 21 days after treatment
Method: In this example, the herbicidal effectiveness of selected dicamba salts prepared in accordance with Example 1 was evaluated in greenhouse testing. The herbicidal effectiveness data set forth herein report “Weed killing efficacy” as a percentage following a standard procedure in the art which reflects a visual assessment of plant mortality and growth reduction by comparison with untreated plants, made by technicians specially trained to make and record such observations. Such measurements are relied upon and regularly reported by Monsanto Company in the course of its herbicide business.
The following procedure was used for testing compositions of this example to determine herbicidal effectiveness.
Seeds of velvetleaf (ABUTH) were planted in 85 mm square pots in a soil mix which was previously steam sterilized and prefertilized with a 14-14-14 NPK slow release fertilizer at a rate of 3.6 kg/m^3. The pots were placed in a greenhouse with sub-irrigation. About one week after emergence, seedlings were thinned as needed, including removal of any unhealthy or abnormal plants, to create a uniform series of test pots.
The plants were maintained for the duration of the test in the greenhouse where they received a minimum of 14 hours of light per day. If natural light was insufficient to achieve the daily requirement, artificial light with an intensity of approximately 475 microeinsteins was used to make up the difference. Exposure temperatures were not precisely controlled but averaged about 27° C. during the day and about 21° C. during the night. Plants were sub-irrigated throughout the test to ensure adequate soil moisture levels.
Application of herbicide salt solutions were made by spraying with a track sprayer fitted with a 9501E nozzle calibrated to deliver a spray volume of approximately 38 liters per hectare (l/ha). After treatment, pots were returned to the greenhouse until ready for evaluation.
For evaluation of herbicidal effectiveness, all plants in the test were examined by a single practiced technician, who recorded percent control, a visual measurement of the effectiveness of each treatment by comparison with untreated plants. […] Control of 85% or more is in most cases considered acceptable for normal herbicide use. […] The weed killing efficacy was evaluated 21 days after the treatment.

[3] = dicamba salt 0.6 wt. % a.e., potassium glyphosate 0.9 wt. % a.e.
[4] = dicamba salt 0.6 wt. % a.e., potassium glyphosate 1.2 wt. % a.e.
[5] = dicamba salt 2 wt. % a.e., potassium glyphosate 6 wt. % a.e., vs 2 wt. % a.e. CLARITY without glyphosate

Row | SMILES | Volatility Reduction Over DGA Dicamba Spray (%) Humidome Test [1, 3] [%] | Volatility Reduction Over DGA Dicamba Spray (%) Tube Test [2, 5] [%] | other results
1 | CCc1nc(C)c[nH]1.COc1c(Cl)ccc(Cl)c1C(=O)O [Salt 10] | 86 | 72 | Volatility Reduction Over DGA Dicamba Spray (%) Humidome Test [1, 4]: 85%; Volatility Reduction Over DGA Dicamba Spray (%) Humidome Test ([1]; dicamba salt 2.4 wt. % a.e., potassium glyphosate 4.8 wt. % a.e.): 86%; Volatility Reduction Over DGA Dicamba Spray (%) Tube Test ([2]; dicamba salt 10 wt. % a.e., no potassium glyphosate, vs 2 wt. % a.e. CLARITY): 88%
2 | C1CCC(N2CCNCC2)CC1.COc1c(Cl)ccc(Cl)c1C(=O)O [Salt 3] |  | 75 | 
3 | C(CC1CCNCC1)CC1CCNCC1.COc1c(Cl)ccc(Cl)c1C(=O)O.COc1c(Cl)ccc(Cl)c1C(=O)O [Salt 22] | 68 | 60 | 
4 | COc1c(Cl)ccc(Cl)c1C(=O)O.Cc1ncc[nH]1 [2-methyl imidazolium dicamba] |  |  | Weed killing efficacy (%) (velvetleaf (ABUTH); application rate 140 g a.e./ha): 40.0%; Weed killing efficacy (%) (velvetleaf (ABUTH); application rate 280 g a.e./ha): 66.7%; Weed killing efficacy (%) (velvetleaf (ABUTH); application rate 560 g a.e./ha): 85.0%
5 | C1CCN(C2CCNCC2)CC1.COc1c(Cl)ccc(Cl)c1C(=O)O.COc1c(Cl)ccc(Cl)c1C(=O)O [Salt 19] |  | 23 | 
6 | COc1c(Cl)ccc(Cl)c1C(=O)O.Cc1ncc[nH]1 [Salt 12] | 46 |  | Volatility Reduction Over DGA Dicamba Spray (%) Humidome Test [1, 4]: 50%
7 | CN1CCN(C)CC1.COc1c(Cl)ccc(Cl)c1C(=O)O [Salt 23] |  | 23 | 
8 | COc1c(Cl)ccc(Cl)c1C(=O)O.OCCN1CCNCC1 [Salt 4] |  | 69 | 
9 | CC(C)c1ncc[nH]1.COc1c(Cl)ccc(Cl)c1C(=O)O [Salt 9] | 63 | 65 | Volatility Reduction Over DGA Dicamba Spray (%) Humidome Test [1, 4]: 67%
10 | CCN1CCNCC1.COc1c(Cl)ccc(Cl)c1C(=O)O [Salt 6] |  | 83 | 
11 | COc1c(Cl)ccc(Cl)c1C(=O)O.OCCN1CCN(CCO)CC1 [Salt 24] | 76 | 57 | 
12 | CCCCN1CCNCC1.COc1c(Cl)ccc(Cl)c1C(=O)O [Salt 5] |  | 70 | 
13 | CCc1ncc[nH]1.COc1c(Cl)ccc(Cl)c1C(=O)O [Salt 11] | 67 | 67 | Volatility Reduction Over DGA Dicamba Spray (%) Humidome Test [1, 4]: 60%
14 | CCc1nc(C)c[nH]1.COc1c(Cl)ccc(Cl)c1C(=O)O [2-ethyl-4-methyl imidazolium dicamba] |  |  | Weed killing efficacy (%) (velvetleaf (ABUTH); application rate 140 g a.e./ha): 30.0%; Weed killing efficacy (%) (velvetleaf (ABUTH); application rate 280 g a.e./ha): 62.5%; Weed killing efficacy (%) (velvetleaf (ABUTH); application rate 560 g a.e./ha): 83.3%
15 | CC(C)CN1CCC(=O)CC1.COc1c(Cl)ccc(Cl)c1C(=O)O [Salt 17] |  | 57 | 
16 | COc1c(Cl)ccc(Cl)c1C(=O)O.Cc1c[nH]c(-c2ccccc2)n1 [Salt 14] | 92 |  | 
17 | CCCN1CCC(=O)CC1.COc1c(Cl)ccc(Cl)c1C(=O)O [Salt 16] |  | 20 | 
18 | CCc1ncc[nH]1.COc1c(Cl)ccc(Cl)c1C(=O)O [2-ethyl imidazolium dicamba] |  |  | Weed killing efficacy (%) (velvetleaf (ABUTH); application rate 140 g a.e./ha): 38.3%; Weed killing efficacy (%) (velvetleaf (ABUTH); application rate 280 g a.e./ha): 67.5%; Weed killing efficacy (%) (velvetleaf (ABUTH); application rate 560 g a.e./ha): 80.8%
